Experimental data reported in PubChem BioAssay AID248 (DTP/NCI, 2004).
Inconclusive results and toxic doses are left out. Rule as the data show it: active = T/C of 150% or more; inactive = T/C below 125%. Square brackets hold non-standard residues; d marks the D form. Peptide text beside a SMILES is read from it. * marks the point of attachment. Cbz = O=C(OCc1ccccc1)*; Abu = CC[CH](N)C(=O)O; OBn = c1ccc(CO*)cc1

Test system: L1210 leukemia ip in BDF1 mice, survival T/C
Assay: NCI In Vivo Anticancer Drug Screen. Data for tumor model L1210 Leukemia (intraperitoneal) in B6D2F1 (BDF1) mice
Conditions: endpoint: mean survival time, higher = longer survival
Method in brief: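 Tumor cells were implanted, animals were treated, and survival was followed. The result divides the treated measurement by the vehicle-control measurement.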

[1] = dose: 100.0 mg/kg/injection, schedule: Q04DX002 (ip), vehicle: Klucel (hydroxypropylcellulose) (HPC)
[2] = dose: 200.0 mg/kg/injection, schedule: Q04DX002 (ip), vehicle: Klucel (hydroxypropylcellulose) (HPC)
[3] = dose: 400.0 mg/kg/injection, schedule: Q04DX002 (ip), vehicle: Klucel (hydroxypropylcellulose) (HPC)
[4] = dose: 100.0 mg/kg/injection, schedule: Q01DX001 (ip), vehicle: Klucel (hydroxypropylcellulose) (HPC)
[5] = dose: 200.0 mg/kg/injection, schedule: Q01DX001 (ip), vehicle: Klucel (hydroxypropylcellulose) (HPC)
[6] = dose: 400.0 mg/kg/injection, schedule: Q01DX001 (ip), vehicle: Klucel (hydroxypropylcellulose) (HPC)
[7] = dose: 100.0 mg/kg/injection, schedule: Q01DX001 (ip), vehicle: saline
[8] = dose: 200.0 mg/kg/injection, schedule: Q01DX001 (ip), vehicle: saline
[9] = dose: 400.0 mg/kg/injection, schedule: Q01DX001 (ip), vehicle: saline
[10] = dose: 100.0 mg/kg/injection, schedule: Q04DX002 (ip), vehicle: saline
[11] = dose: 200.0 mg/kg/injection, schedule: Q04DX002 (ip), vehicle: saline
[12] = dose: 100.0 mg/kg/injection, schedule: Q04DX003 (ip), vehicle: saline with Tween-80
[13] = dose: 200.0 mg/kg/injection, schedule: Q04DX003 (ip), vehicle: saline with Tween-80
[14] = dose: 100.0 mg/kg/injection, schedule: Q04DX003 (ip), vehicle: saline
[15] = dose: 200.0 mg/kg/injection, schedule: Q04DX003 (ip), vehicle: saline
[16] = dose: 400.0 mg/kg/injection, schedule: Q04DX003 (ip), vehicle: saline
[17] = dose: 100.0 mg/kg/injection, schedule: Q01DX009 (ip), vehicle: Klucel (hydroxypropylcellulose) (HPC)
[18] = dose: 100.0 mg/kg/injection, schedule: Q04DX003 (ip), vehicle: Klucel (hydroxypropylcellulose) (HPC)
[19] = dose: 200.0 mg/kg/injection, schedule: Q01DX009 (ip), vehicle: Klucel (hydroxypropylcellulose) (HPC)
[20] = dose: 200.0 mg/kg/injection, schedule: Q04DX003 (ip), vehicle: Klucel (hydroxypropylcellulose) (HPC)
[21] = dose: 400.0 mg/kg/injection, schedule: Q04DX003 (ip), vehicle: Klucel (hydroxypropylcellulose) (HPC)
[22] = dose: 50.0 mg/kg/injection, schedule: Q01DX001 (ip), vehicle: saline
[23] = dose: 400.0 mg/kg/injection, schedule: Q01DX009 (ip), vehicle: Klucel (hydroxypropylcellulose) (HPC)
[24] = dose: 25.0 mg/kg/injection, schedule: Q01DX009 (ip), vehicle: saline with Tween-80
[25] = dose: 50.0 mg/kg/injection, schedule: Q01DX009 (ip), vehicle: saline with Tween-80

Measured: T/C

O=C(NNc1ccccc1OCc1ccccc1)C(F)(F)F
inactive: dose: 100.0 mg/kg/injection, schedule: Q01DX001 (ip), vehicle: saline with Tween-80 100 % of control | dose: 200.0 mg/kg/injection, schedule: Q01DX001 (ip), vehicle: saline with Tween-80 103 % of control | dose: 400.0 mg/kg/injection, schedule: Q01DX001 (ip), vehicle: saline with Tween-80 95 % of control

N/N=C/c1cc2ccccc2c2ccccc12
inactive: [1] 97 % of control | [2] 91 % of control | [3] 87 % of control

Cc1ccc(NCC(O)CN2CCOCC2)cc1 (configuration not stated)
inactive: dose: 3.0 mg/kg/injection, schedule: Q04DX003 (ip), vehicle: Klucel (hydroxypropylcellulose) (HPC) 107 % of control | dose: 6.0 mg/kg/injection, schedule: Q01DX009 (ip), vehicle: Klucel (hydroxypropylcellulose) (HPC) 101 % of control | dose: 6.0 mg/kg/injection, schedule: Q04DX003 (ip), vehicle: Klucel (hydroxypropylcellulose) (HPC) 100 % of control | dose: 12.0 mg/kg/injection, schedule: Q01DX009 (ip), vehicle: Klucel (hydroxypropylcellulose) (HPC) 93 % of control | dose: 12.0 mg/kg/injection, schedule: Q04DX003 (ip), vehicle: Klucel (hydroxypropylcellulose) (HPC) 103 % of control | dose: 24.0 mg/kg/injection, schedule: Q01DX009 (ip), vehicle: Klucel (hydroxypropylcellulose) (HPC) 106 % of control | dose: 100.0 mg/kg/injection, schedule: Q01DX001 (ip), vehicle: other 101 % of control

O=C(O)C1=CC2C3C=C(C(=O)O)C(C3)C2C1 (configuration not stated)
inactive: [4] 96 % of control | [5] 96 % of control | [6] 97 % of control

O=c1oc2c(CN3CCCC3)c(O)ccc2c2c1CCCC2
inactive: dose: 100.0 mg/kg/injection, schedule: Q01DX001 (ip), vehicle: carboxymethylcellulose (CMC) 91 % of control | dose: 200.0 mg/kg/injection, schedule: Q01DX001 (ip), vehicle: carboxymethylcellulose (CMC) 98 % of control

Cc1ncc(C(=O)O)[nH]1
inactive: [7] 91 % of control | [8] 89 % of control | [9] 91 % of control

O=C(CCC(=O)NO)NO
inactive: [10] 110 % of control | [11] 103 % of control | dose: 400.0 mg/kg/injection, schedule: Q04DX002 (ip), vehicle: saline 97 % of control

Cc1ccc(NC(=S)NCCO)cc1
inactive: [12] 100 % of control | [13] 102 % of control | dose: 400.0 mg/kg/injection, schedule: Q04DX003 (ip), vehicle: saline with Tween-80 97 % of control

CCCCCCCCCCCCCc1nc(N)nc(NCCCC)n1
inactive: [1] 92 % of control | [2] 89 % of control | [3] 100 % of control

O=S(=O)(Nc1ccccc1)c1ccc([As](=O)(O)O)cc1
inactive: [7] 103 % of control

BrC12CCC(CC1)C1(Br)CCC2CC1
inactive: [7] 102 % of control | [14] 86 % of control | [8] 96 % of control | [15] 91 % of control | [9] 89 % of control | [16] 86 % of control

O=C(O)c1cccc2c1-c1ccccc1/C2=N\O
inactive: [7] 100 % of control | [8] 110 % of control | [9] 104 % of control

Cc1cc(C(C)(C)C)c(SC(=O)N(C)C)c(C(C)(C)C)c1
inactive: [12] 97 % of control | [13] 95 % of control

Cc1cccc2c(=O)c(C(=O)O)cn(C)c12
inactive: dose: 50.0 mg/kg/injection, schedule: Q04DX002 (ip), vehicle: saline 107 % of control | [10] 107 % of control | [11] 107 % of control

CCN(CC)C(=O)C1(C)CCCC2(C)c3cc(OC(C)=O)ccc3CCC12 (configuration not stated)
inactive: [17] 92 % of control | [18] 108 % of control | [19] 87 % of control | [20] 100 % of control | [21] 100 % of control

CN(C)c1nnnn1-c1ccccc1
inactive: [14] 100 % of control | [15] 96 % of control | [16] 105 % of control

Cc1ncc(Br)c(C(=O)O)n1
inactive: [22] 101 % of control | [7] 98 % of control | [17] 106 % of control | [8] 95 % of control | [19] 113 % of control | [9] 90 % of control | [23] 110 % of control

CC1([N+](=O)[O-])COP(=O)(Nc2ccccc2)OC1 (configuration not stated)
inactive: [22] 96 % of control | [7] 98 % of control | [8] 93 % of control | [9] 110 % of control

CCCOCC(O)C[As](=O)(O)c1cccc(Cl)c1 (configuration not stated)
inactive: dose: 6.25 mg/kg/injection, schedule: Q01DX001 (ip), vehicle: saline with Tween-80 104 % of control | dose: 12.5 mg/kg/injection, schedule: Q01DX001 (ip), vehicle: saline with Tween-80 102 % of control | dose: 25.0 mg/kg/injection, schedule: Q01DX001 (ip), vehicle: saline with Tween-80 100 % of control

N#Cc1cccn1-c1cccc2c(-n3cccc3C#N)cccc12
inactive: dose: 25.0 mg/kg/injection, schedule: Q04DX002 (ip), vehicle: Klucel (hydroxypropylcellulose) (HPC) 101 % of control | dose: 50.0 mg/kg/injection, schedule: Q04DX002 (ip), vehicle: Klucel (hydroxypropylcellulose) (HPC) 97 % of control | [1] 101 % of control

NCCCCC(N)C(=O)NC(CCCN=C(N)N)C(=O)O (stereo not drawn) (H-Lys-Arg-OH; configuration not given here)
inactive: dose: 50.0 mg/kg/injection, schedule: Q04DX003 (ip), vehicle: water 117 % of control | dose: 100.0 mg/kg/injection, schedule: Q01DX009 (ip), vehicle: water 108 % of control | dose: 100.0 mg/kg/injection, schedule: Q04DX003 (ip), vehicle: water 121 % of control | dose: 200.0 mg/kg/injection, schedule: Q01DX009 (ip), vehicle: water 97 % of control | dose: 200.0 mg/kg/injection, schedule: Q04DX003 (ip), vehicle: water 111 % of control | dose: 400.0 mg/kg/injection, schedule: Q04DX003 (ip), vehicle: water 115 % of control

CNC(=O)OCC1=CC(=O)C=CC1=O
inactive: dose: 6.25 mg/kg/injection, schedule: Q04DX003 (ip), vehicle: Klucel (hydroxypropylcellulose) (HPC) 92 % of control | dose: 12.5 mg/kg/injection, schedule: Q01DX001 (ip), vehicle: Klucel (hydroxypropylcellulose) (HPC) 93 % of control | dose: 12.5 mg/kg/injection, schedule: Q04DX003 (ip), vehicle: Klucel (hydroxypropylcellulose) (HPC) 94 % of control | dose: 25.0 mg/kg/injection, schedule: Q01DX001 (ip), vehicle: Klucel (hydroxypropylcellulose) (HPC) 96 % of control

Oc1ccccc1C=NCCCN1CC1.[Ni+2].[O-]c1ccccc1C=NCCCN1CC1
inactive: [4] 114 % of control | [5] 87 % of control | [6] 104 % of control

OC1CC2CCC(C1)N2CCCN1c2ccccc2Sc2ccc(Cl)cc21 (configuration not stated)
inactive: [24] 112 % of control | [25] 87 % of control | dose: 50.0 mg/kg/injection, schedule: Q04DX003 (ip), vehicle: saline with Tween-80 97 % of control | [12] 112 % of control | dose: 133.0 mg/kg/injection, schedule: Q04DX003 (ip), vehicle: saline with Tween-80 107 % of control

Cc1cccc(NC(=O)NCCCl)c1Cl
inactive: [17] 97 % of control | [18] 97 % of control | [19] 97 % of control | [20] 94 % of control | [23] 100 % of control | [21] 94 % of control

CCC(NC(=O)OCc1ccccc1)C(=O)NC(C(=O)OCc1ccccc1)C(C)C (configuration not stated) (Cbz-[Abu]-Val-OBn; configuration not given here)
inactive: [17] 96 % of control | [19] 99 % of control | [23] 96 % of control

Cn1ncc(C(=O)O)c1N
inactive: [24] 102 % of control | [25] 111 % of control | dose: 100.0 mg/kg/injection, schedule: Q01DX009 (ip), vehicle: saline with Tween-80 100 % of control | dose: 200.0 mg/kg/injection, schedule: Q01DX009 (ip), vehicle: saline with Tween-80 94 % of control | dose: 400.0 mg/kg/injection, schedule: Q01DX009 (ip), vehicle: saline with Tween-80 96 % of control
